# In PMC10887214 (Biomedicines, 2024):
# What was measured:
# [1] = biological target: T1, GIRK1/GIRK2 channels (Mus musculus, UniProt P48542+P63250); assay: Two-electrode voltage-clamp, GIRK1/GIRK2 channels expressed in oocytes; format: cell-based; details: 100 μM OS, HK
# T1 construct: expressed in transfected cells; host or cells: Xenopus laevis oocytes (cRNA injection)
# T1 sequence (P63250 1-501): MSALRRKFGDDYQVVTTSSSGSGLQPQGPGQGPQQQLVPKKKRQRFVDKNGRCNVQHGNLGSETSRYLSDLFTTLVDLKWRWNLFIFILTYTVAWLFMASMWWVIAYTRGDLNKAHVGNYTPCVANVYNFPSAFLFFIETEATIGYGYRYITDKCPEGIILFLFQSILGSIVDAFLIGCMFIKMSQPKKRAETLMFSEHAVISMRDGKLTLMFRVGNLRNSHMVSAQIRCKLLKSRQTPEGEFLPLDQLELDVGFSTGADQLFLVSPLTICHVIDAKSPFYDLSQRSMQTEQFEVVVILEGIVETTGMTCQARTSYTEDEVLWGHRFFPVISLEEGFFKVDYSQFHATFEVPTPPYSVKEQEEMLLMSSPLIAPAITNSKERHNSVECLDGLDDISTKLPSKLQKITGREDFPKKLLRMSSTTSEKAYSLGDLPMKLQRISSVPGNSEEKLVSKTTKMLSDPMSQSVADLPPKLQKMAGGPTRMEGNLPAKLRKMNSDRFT
# T1 sequence (P48542 1-425): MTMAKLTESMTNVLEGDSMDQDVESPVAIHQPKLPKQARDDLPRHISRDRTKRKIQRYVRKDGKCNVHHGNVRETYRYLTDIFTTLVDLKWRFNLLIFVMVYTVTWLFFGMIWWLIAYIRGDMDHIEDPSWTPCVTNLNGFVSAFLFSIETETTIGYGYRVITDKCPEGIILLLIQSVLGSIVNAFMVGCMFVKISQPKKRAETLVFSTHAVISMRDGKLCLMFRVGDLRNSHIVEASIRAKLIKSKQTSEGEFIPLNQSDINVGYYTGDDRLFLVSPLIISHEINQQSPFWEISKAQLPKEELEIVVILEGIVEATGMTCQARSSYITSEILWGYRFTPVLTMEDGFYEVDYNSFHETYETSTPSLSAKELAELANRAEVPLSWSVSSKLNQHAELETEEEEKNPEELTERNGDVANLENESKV
# From the text: In vitro transcription of cDNA clones.
# Heterologous expression in Xenopus laevis oocytes.
# Electrophysiological measurements.
# [2] = biological target: T2, CB2 receptor (hCB2) (Homo sapiens, UniProt P34972); assay: Two-electrode voltage-clamp, CB2-GIRK1/GIRK2-RGS4 coupling system expressed in Xenopus oocytes; format: cell-based
# T2 construct: expressed in transfected cells; host or cells: Xenopus laevis oocytes (cRNA injection)
# T2 sequence (P34972 whole entry): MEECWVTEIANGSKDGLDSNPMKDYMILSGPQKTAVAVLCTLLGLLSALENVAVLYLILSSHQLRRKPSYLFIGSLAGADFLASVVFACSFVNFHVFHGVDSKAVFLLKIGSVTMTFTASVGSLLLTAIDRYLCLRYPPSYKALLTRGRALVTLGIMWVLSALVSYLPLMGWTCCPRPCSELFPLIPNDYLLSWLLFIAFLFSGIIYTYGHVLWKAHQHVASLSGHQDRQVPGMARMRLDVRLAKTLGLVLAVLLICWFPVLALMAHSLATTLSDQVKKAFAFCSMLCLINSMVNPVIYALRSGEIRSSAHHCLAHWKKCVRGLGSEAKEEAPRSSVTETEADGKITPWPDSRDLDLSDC
# [3] = biological target: α7-nAChR (Homo sapiens, UniProt P36544)
# Sequence of α7-nAChR (P36544 23-502): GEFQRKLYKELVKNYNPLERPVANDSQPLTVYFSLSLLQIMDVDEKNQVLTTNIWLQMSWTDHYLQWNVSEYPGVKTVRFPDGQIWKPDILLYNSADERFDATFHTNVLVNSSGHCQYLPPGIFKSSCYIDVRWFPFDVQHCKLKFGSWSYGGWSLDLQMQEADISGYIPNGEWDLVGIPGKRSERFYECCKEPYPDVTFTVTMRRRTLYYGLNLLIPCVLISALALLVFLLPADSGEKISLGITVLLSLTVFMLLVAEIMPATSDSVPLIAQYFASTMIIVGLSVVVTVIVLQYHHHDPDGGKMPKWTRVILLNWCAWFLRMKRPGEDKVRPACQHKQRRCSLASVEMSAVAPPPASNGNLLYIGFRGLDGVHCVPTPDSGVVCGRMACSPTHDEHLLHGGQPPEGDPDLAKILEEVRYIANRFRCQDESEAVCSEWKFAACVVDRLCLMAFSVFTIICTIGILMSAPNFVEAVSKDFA
# [4] = biological target: H4R (Homo sapiens, UniProt Q9H3N8)
# Sequence of H4R (Q9H3N8 whole entry): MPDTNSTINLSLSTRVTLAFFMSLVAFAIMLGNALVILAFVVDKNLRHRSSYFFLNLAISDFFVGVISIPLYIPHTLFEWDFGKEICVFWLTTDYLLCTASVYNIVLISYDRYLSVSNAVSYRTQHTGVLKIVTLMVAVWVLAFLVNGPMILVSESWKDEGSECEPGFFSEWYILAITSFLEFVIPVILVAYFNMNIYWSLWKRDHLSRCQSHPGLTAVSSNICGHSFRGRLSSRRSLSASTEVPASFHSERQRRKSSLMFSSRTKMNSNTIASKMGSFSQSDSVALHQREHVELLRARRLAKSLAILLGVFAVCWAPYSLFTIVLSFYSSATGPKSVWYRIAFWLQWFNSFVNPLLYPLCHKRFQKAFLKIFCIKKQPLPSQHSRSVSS
# [5] = biological target: KV7.1 (Homo sapiens, UniProt P51787)
# Sequence of KV7.1 (P51787 whole entry): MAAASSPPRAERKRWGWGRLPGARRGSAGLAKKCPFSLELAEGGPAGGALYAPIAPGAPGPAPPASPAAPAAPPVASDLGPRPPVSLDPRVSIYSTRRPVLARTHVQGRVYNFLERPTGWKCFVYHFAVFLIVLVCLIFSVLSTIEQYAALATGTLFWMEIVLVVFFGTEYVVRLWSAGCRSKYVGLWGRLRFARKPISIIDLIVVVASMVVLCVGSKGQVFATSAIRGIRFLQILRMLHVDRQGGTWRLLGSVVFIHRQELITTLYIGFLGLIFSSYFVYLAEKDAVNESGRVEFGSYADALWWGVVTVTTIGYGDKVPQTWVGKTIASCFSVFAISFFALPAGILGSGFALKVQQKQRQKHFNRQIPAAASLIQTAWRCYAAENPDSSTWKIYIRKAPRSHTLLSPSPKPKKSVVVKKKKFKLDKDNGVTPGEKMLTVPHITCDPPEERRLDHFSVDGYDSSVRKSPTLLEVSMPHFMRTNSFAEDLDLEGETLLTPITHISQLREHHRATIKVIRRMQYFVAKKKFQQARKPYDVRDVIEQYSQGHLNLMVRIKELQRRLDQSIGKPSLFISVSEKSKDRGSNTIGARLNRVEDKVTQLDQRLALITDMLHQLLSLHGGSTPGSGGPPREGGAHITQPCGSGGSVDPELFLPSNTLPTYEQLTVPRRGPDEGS
# [6] = system: chimeric CB1/2 receptor; assay: Two-electrode voltage-clamp, chimeric CB1/2-GIRK1/GIRK2-RGS4 coupling system expressed in oocytes; details: 100 μM OS + 0.5 μM WIN55,212-2
# [7] = system: TRPV1; set-up: method as in PMID 17279090; details: HEK cells overexpressing TRPV1; read-out: IC50 as antagonist of TRPV1; cited from earlier work
# [8] = system: C57BL/6J mice; assay: Open Field (OF); format: in vivo, mouse; details: i.p.
# Description: Animal housing. Forty-eight Male C57BL/6J mice were purchased from Janvier Labs (Le Genest-Saint-Isle, France) and were time-specifically housed in a 12 h light-dark cycle (lights on at 7 am), with ad libitum water and food in conditioned rooms (22 °C, humidity ~60%).
# Behavior assays. All mice were subjected to a behavioral test battery that consisted of several general performance tasks of locomotor activity, exploratory and anxiety-like behavior, and learning and memory. Mice were divided into four groups: Vehicle, OS (2 mg/kg), WIN55 (0.5 mg/kg), or OS + WIN. Each group consisted of 7–14 mice that received two i.p injections before each test, with a 10 min interval between each injection. Veh + Veh were injected with PBS. Veh + WIN were injected with PBS and WIN55. Veh + OS were injected with PBS and OS. OS + WIN were injected with OS and WIN55. PBS was used as vehicle as it was used for dilution of drugs. Tests were performed in the order described below after 10 min of the last injection, with a 24 h interval between each test.
# Open Field (OF): One day after the cage activity test, mice were tested in the OF paradigm. The OF aimed to test the OS, WIN, and OS + WIN effect on animal locomotion and exploratory behavior. Animals were placed in the test room one hour before starting the test. For the OF, animals were placed in a plexiglass box (60 × 60 × 60 cm) divided into three zones (center, periphery, and corners) for 10 min and left free to explore. Total distance and time in zones were counted. Here, more time in the center meant an anxiolytic effect, and a higher distance walking meant an increase in locomotor activity. For this test, we used Veh (n = 8), OS (n = 10), WIN (n = 7), OS + WIN (n = 8).
# [9] = biological target: MRGPRX2 (Homo sapiens, UniProt Q96LB1)
# Sequence of MRGPRX2 (Q96LB1 whole entry): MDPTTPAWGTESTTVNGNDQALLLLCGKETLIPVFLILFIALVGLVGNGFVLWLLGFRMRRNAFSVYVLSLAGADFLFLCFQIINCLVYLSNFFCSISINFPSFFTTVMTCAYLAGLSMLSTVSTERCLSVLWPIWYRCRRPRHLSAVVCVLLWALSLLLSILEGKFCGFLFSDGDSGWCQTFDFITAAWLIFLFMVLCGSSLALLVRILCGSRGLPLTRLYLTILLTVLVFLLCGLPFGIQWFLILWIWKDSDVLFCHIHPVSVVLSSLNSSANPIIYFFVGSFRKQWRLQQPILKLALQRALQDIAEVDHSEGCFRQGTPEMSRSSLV
compound,measurement,setting,value
"CCCCCCCC/C=C\CCCCCCCC(=O)NCCc1c[nH]c2ccc(O)cc12 [OS, oleoyl serotonin]","Effect on IK,basal",[1],"did not significantly change IK,basal"
same,"Effect on WIN55,212-2-induced inward K+ currents (IK,WIN+OS)","[2]; 100 μM OS co-applied with 0.3 μM WIN55,212-2",inhibited
same,"Effect of OS alone on IK,basal","[2]; 100 μM OS, 20–30 s, in HK","did not change the response of IK,basal"
same,IC50,"[2]; IC50 of blocking CB2 receptor activated by WIN55,212-2, 0.03 μM WIN + OS",14.8 µM
same,IC50,"[2]; IC50 of blocking CB2 receptor activated by WIN55,212-2, 0.1 μM WIN + OS",13.2 µM
same,IC50,"[2]; IC50 of blocking CB2 receptor activated by WIN55,212-2, 0.3 μM WIN + OS",12.1 µM
same,IC50,"[2]; IC50 of blocking CB2 receptor activated by WIN55,212-2, 1 μM WIN + OS",10.4 µM
same,Mode of antagonism,"[2]; against WIN55,212-2",non-competitively blocked
same,Activity in selectivity screening,[3],did not show significant activity
same,Activity in selectivity screening,[4],did not show significant activity
same,Activity in selectivity screening,[5],did not show significant activity
same,"Effect on WIN55,212-2-induced receptor-dependent inward K+ currents (IK,WIN)",[6],did not change the response
same,IC50,[7],2.57 µM
same,Effect of OS injection on the WIN-induced decrease of time in the periphery,[8]; OS 2 mg/kg before WIN 0.5 mg/kg,prevented this decrease
same,Total distance walked in open field (locomotion),"[8]; OS 2 mg/kg, WIN 0.5 mg/kg, 10 min test",neither OS nor WIN affected locomotion
same,Time spent in the center zone of open field,"[8]; OS 2 mg/kg, WIN 0.5 mg/kg, compared with Veh + WIN",spent more time than the WIN-only group
same,Activity in selectivity screening,[9],did not show significant activity
